Consider 35 compounds from PubChem BioAssay AID1117361 (Southern Research Institute, 2015).

This test deals with Protein Tat (Human immunodeficiency virus type 1 group M subtype B (isolate HXB2)) (UniProt P04608). In words: HIV-1 Tat–TAR interaction blockers – biochemical, fluorescence polarization, FAM-labeled TAR RNA, counter-screen for Vif-APOBEC3G degradation inhibitor project, dose response (AID 1117361). The note with it: Tat-TAR RNA binding. Background: Polarisation of emitted light reports the rotation of a fluorescent probe.
Chain of Protein Tat (Human immunodeficiency virus type 1 group M subtype B (isolate HXB2)) (P04608 whole entry, looked up): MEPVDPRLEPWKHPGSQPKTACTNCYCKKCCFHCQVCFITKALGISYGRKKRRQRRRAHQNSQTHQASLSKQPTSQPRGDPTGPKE
The IC50 is the point on the concentration scale where inhibition reaches its midpoint. Turning to `Cc1ccc(/C=C/C(=O)Nc2cccc(S(=O)(=O)N3CCOCC3)c2)o1`, the IC50 was 89.1 µM.

Turning to `Cc1c(O)cc2c(c1O)C(=O)CC(c1ccc(O)cc1)O2` (stereo not given), the IC50 was 37.2 µM.

With `CNCc1ccccc1Sc1cc(O)ccc1O`, the IC50 is 17.5 µM.

As to `Cn1cccc1/C=C1\CCC/C(=C\c2cccn2C)C1=O`, the IC50 was 17 µM.

As to `O=C(N/N=C/C=C/c1ccco1)c1cccs1`, the IC50 is 11.6 µM.

Take `COc1ccc(NC(=O)N2c3ccc(OC)cc3C(C)=CC2(C)C)cc1`: the IC50 is 3.29 µM.

In the case of `CCN(CC)c1ccc2c(c1)CCCN2`, the IC50 was 2.89 µM.

For `O=C1/C(=C\c2ccco2)SC(=S)N1Cc1ccccc1`, the IC50 was 17.5 µM.

In the case of `C=C(C)C(=O)Nc1ccc2c(c1)OCCOCCOCCO2`, the IC50 is 21.6 µM.

As to `Cc1cc(C)c(S(=O)(=O)N2CCCCC2)c(C)c1N(C)S(=O)(=O)c1ccc(Cl)cc1`, the concentration for half-maximal inhibition (IC50) is 29 µM.

For the compound `COC(=O)C1=COC(C)C2CN3CCc4c([nH]c5ccccc45)C3CC12` (stereo not given), the IC50 is 7.63 µM.

`CC(=O)Nc1ccc(S(=O)(=O)NCCSCc2ccco2)cc1`: the IC50 was 65.8 µM.

As to `Cc1ccc(N/N=C/c2c(C)c(C#N)c(=O)n(C)c2O)cc1C`, the IC50 is 11.9 µM.

As for `CCOC(=O)NC1(NC2CCCCC2)Oc2ccccc2O1`, the IC50 is 88.4 µM.

As for `Cc1cc(-c2csc(NC(=O)c3ccc(C#N)cc3)n2)c(C)n1Cc1ccco1`, the IC50 was 16.7 µM.

On to `CC1(C)N([O-])c2cc([N+](=O)[O-])ccc2[N+]1=O`, for which the IC50 is 61.3 µM.

With `Cc1ccc(/C=C/C(=O)Nc2ncc(C)s2)o1`, the 50% inhibitory concentration (IC50) was 16 µM.

On to `CC(CNc1ccccc1O)C(=O)O` (stereo not given), for which the IC50 is 32.7 µM.

With `CCOC(=O)C1CCN(C(=O)COc2ccc(S(=O)(=O)NC(C)C)cc2)CC1`, the half-inhibitory concentration (IC50) was 81.8 µM.

On to `C=CCn1c(C)cc(-c2csc(N)n2)c1C`, for which the IC50 was 5.49 µM.

As to `O=C1/C(=C/C=C/c2ccco2)SC(=S)N1c1ccc(O)cc1`, the IC50 was 19.1 µM.

`CC(=O)OCCCNc1cc(Sc2nc3ccccc3s2)c2nonc2c1[N+](=O)[O-]`: the IC50 is 3.41 µM.

In the case of `CC(C)NC[C@@H](O)c1ccc(O)c(O)c1`, the half-maximal inhibitory concentration (IC50) is 5.21 µM.

Turning to `CC1CC(=O)c2c(cc3c(-c4c(O)cc(O)c5c(O)c6c(cc45)OC(C)CC6=O)c(O)cc(O)c3c2O)O1` (stereo not given), the IC50 is 7.62 µM.

As to `COc1ccc(-n2c(C)cc(C(=O)CSc3nn4c(=O)c(C(C)(C)C)nnc4s3)c2C)cc1`, the IC50 was 62.7 µM.

On to `CCCCn1c(=NC(=O)c2cccnc2)c(C#N)cc2c(=O)n3cccc(C)c3nc21`, for which the IC50 is 4.74 µM.

As to `NC(=O)Cn1c(=O)n(Cc2ccco2)c(=O)c2c3c(sc21)CCCCC3`, the IC50 is 15.5 µM.

Turning to `COc1cc(C(=O)NCc2nnc(SCC(=O)Nc3nc4ccc(C)cc4s3)o2)cc(OC)c1OC`, the IC50 is 35.9 µM.

For `O=C(O)c1cc(N2N=C(C(F)(F)F)/C(=C/C=C/c3ccco3)C2=O)ccc1Cl`, the IC50 was 0.616 µM.

On to `O=C(O)c1ccc(-n2cccc2/C=C2/NC(=O)N(c3ccccc3)C2=O)cc1`, for which the IC50 was 15.7 µM.

In the case of `CC(=O)Nc1ccc(S(=O)(=O)Nc2nc3ccccc3nc2Nc2ccc(C(=O)O)c(O)c2)cc1`, the IC50 is 32.2 µM.

For the compound `S=c1[nH]nc(C2CC2)n1Cc1ccco1`, the IC50 was 45.9 µM.

As to `C=CCSC1=N/C(=C\C=C\c2ccco2)C(=O)S1`, the IC50 is 1.89 µM.

Turning to `CC(=C/c1ccco1)/C=N/NC(=O)Cc1cccn1C`, the IC50 is 10.7 µM.

Regarding `CCN(CC)c1ccc(NC(=O)CCS(=O)(=O)c2ccc(Br)cc2)c(C)c1`, the IC50 is 46.5 µM.
